In publication PMC8217550, “ERRγ enhances cardiac maturation with T-tubule formation in human iPSC-derived cardiomyocytes” (Nature Communications, 2021):

Target: T1, estrogen-related receptor gamma (ERRγ) (Homo sapiens, UniProt P62508)
T1 construct: gene ESRRG; His-tagged ERRγ LBD
T1 sequence (P62508 233-458 limits assumed): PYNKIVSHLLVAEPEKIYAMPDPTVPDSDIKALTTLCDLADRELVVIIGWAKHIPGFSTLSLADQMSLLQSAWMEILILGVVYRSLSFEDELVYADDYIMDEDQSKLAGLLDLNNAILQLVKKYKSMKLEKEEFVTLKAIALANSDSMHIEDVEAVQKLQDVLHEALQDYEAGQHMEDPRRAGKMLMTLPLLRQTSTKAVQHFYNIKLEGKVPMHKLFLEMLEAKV
T1 sequence (Q9UBK2 1-798 partner): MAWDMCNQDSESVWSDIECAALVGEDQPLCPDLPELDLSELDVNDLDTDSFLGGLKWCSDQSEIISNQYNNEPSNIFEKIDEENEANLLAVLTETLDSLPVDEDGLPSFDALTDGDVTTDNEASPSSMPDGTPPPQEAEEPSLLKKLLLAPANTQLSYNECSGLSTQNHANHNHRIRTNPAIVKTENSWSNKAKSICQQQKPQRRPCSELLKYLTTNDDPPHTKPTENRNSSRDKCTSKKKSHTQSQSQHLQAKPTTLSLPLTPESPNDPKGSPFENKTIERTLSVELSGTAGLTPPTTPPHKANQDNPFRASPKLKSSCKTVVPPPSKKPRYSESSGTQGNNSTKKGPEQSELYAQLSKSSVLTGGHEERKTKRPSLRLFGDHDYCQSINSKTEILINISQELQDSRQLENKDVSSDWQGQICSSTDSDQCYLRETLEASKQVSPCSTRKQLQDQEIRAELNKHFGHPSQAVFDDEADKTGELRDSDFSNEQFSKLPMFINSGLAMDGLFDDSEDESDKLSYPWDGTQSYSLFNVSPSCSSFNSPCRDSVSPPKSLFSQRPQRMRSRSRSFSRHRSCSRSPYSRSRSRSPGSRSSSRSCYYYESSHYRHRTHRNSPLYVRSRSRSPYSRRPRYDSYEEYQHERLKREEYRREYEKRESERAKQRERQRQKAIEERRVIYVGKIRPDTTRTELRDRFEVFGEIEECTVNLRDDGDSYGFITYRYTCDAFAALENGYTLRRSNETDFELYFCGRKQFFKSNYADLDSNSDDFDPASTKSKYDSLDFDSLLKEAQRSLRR
Experiment: LanthaScreen TR-FRET PGC1a coactivator-binding assay (agonist)
Type: biochemical

In the case of `O=C1c2ccc(N3CCOCC3)cc2CN1c1ccc2[nH]c(-c3ccc(Br)cc3)nc2c1` [T112, 2-[2-(4-bromophenyl)-1H-benzimidazol-5-yl]-5-(morpholin-4-yl)-2,3-dihydro-1H-isoindol-1-one], the “LanthaScreen TR-FRET PGC1a coactivator-binding assay (agonist)” value is reported as “to have ERRγ-agonistic activity with stronger effects than the commercially available ERRγ agonist GSK4716”.
